{
  "source": "patent US8980865B2",
  "about": "“Substituted nucleotide analogs” (priority 2011, dated 2015)",
  "data": [
    {"target": "NS5B570-Con1 (Delta-21) (Hepatitis C virus genotype 1b, UniProt Q9WMX2)", "assay": "NS5B inhibition assay", "type": "biochemical, HCV", "conditions": "IC50, incorporation of tritiated NMP into acid-insoluble RNA, 2 hours at 37° C.", "method": "The enzyme activity of NS5B570-Con1 (Delta-21) was measured as an incorporation of tritiated NMP into acid-insoluble RNA products. The complementary IRES (cIRES) RNA sequence was used as a template, corresponding to 377 nucleotides from the 3′-end of HCV (−) strand RNA of the Con-1 strain, with a base content of 21% Ade, 23% Ura, 28% Cyt, and 28% Gua. The cIRES RNA was transcribed in vitro using a T7 transcription kit (Ambion, Inc.) and purified using the Qiagen RNeasy maxi kit. HCV polymerase reactions contained 50 nM NS5B570-Con1, 50 nM cIRES RNA, about 0.5 μCi tritiated NTP, 1 μm of competing cold NTP, 20 mM NaCl, 40 mm Tris-HCl (pH 8.0), 4 mm dithiothreitol, and 4 mm MgCl2. Standard reactions were incubated for 2 hours at 37° C., in the presence of increasing concentration of inhibitor. At the end of the reaction, RNA was precipitated with 10% TCA, and acid-insoluble RNA products were filtered on a size exclusion 96-well plate. After washing of the plate, scintillation liquid was added and radio labeled RNA products were detected according to standard procedures with a Trilux Topcount scintillation counter. The compound concentration at which the enzyme-catalyzed rate was reduced by 50% (IC50) was calculated by fitting the data to a non-linear regression (sigmoidal). The IC50 values were derived from the mean of several independent experiments. […]", "units": {"IC50": "nM"}, "values": [
      {"smiles": "C#CC1(O)C(O)C(COP(O)(=S)OP(=O)(O)OP(=O)(O)O)OC1n1ccc(=O)[nH]c1=O", "note": "(centres unmarked) [Compound 24a]", "IC50": "< 10000"},
      {"smiles": "C#CC1(O)C(O)C(COP(O)(=S)OP(=O)(O)OP(=O)(O)O)OC1n1ccc(=O)[nH]c1=O", "note": "(centres unmarked) [Compound 23a]", "IC50": "< 1000"}
    ]},
    {"tested_on": "HCV genotype 1b HCV replicon harbored in Huh7 cells", "assay": "Combination testing in HCV replicon (CalcuSyn CI, MacSynergy II synergy volume)", "type": "cell-based", "conditions": "not given", "method": "(§1) Two or more test compounds were tested in combination with each other using an HCV genotype 1b HCV replicon harbored in Huh7 cells with a stable luciferase (LUC) reporter. Cells were cultured under standard conditions in Dulbecco's modified Eagle's medium (DMEM; Mediatech Inc, Herndon, Va.) containing 10% heat-inactivated fetal bovine serum (FBS; Mediatech Inc, Herndon, Va.) 2 mM L-glutamine, and nonessential amino acids (JRH Biosciences). HCV replicon cells were plated in a 96-well plate at a density of 10^4 cells per well in DMEM with 10% FBS. On the following day, the culture medium was replaced with DMEM containing either no compound as a control, the test compounds serially diluted in the presence of 2% FBS and 0.5% DMSO, or a combination of compound 1a with one or more test compounds serially diluted in the presence of 2% FBS and 0.5% DMSO. The cells were incubated with no compound as a control, with the test compounds, or the combination of compounds for 72 hours. The direct effects of the combination of the test compounds were examined using a luciferase (LUC) based reporter as determined by the Bright-Glo Luciferase Assay (Promega, Madison, Wis.). Dose-response curves were determined for individual compounds and fixed ratio combinations of two or more test compounds.\n(§2) The effects of test compound combinations were evaluated by two separate methods. In the Loewe additivity model, the experimental replicon data was analyzed by using CalcuSyn (Biosoft, Ferguson, Mo.), a computer program based on the method of Chou and Talalay. The program uses the experimental data to calculate a combination index (CI) value for each experimental combination tested. […]\n(§3) The second method utilized for evaluating combination effects used a program called MacSynergy II. […] The volumes of synergy (positive volumes) or antagonism (negative volumes) represent the relative quantity of synergism or antagonism per change in the concentrations of the two drugs. […]", "units": {"Synergy Volume": "μM^2%"}, "values": [
      {"smiles": "CCC[C@H](NC(=O)[C@@H]1[C@H]2CCC[C@H]2CN1C(=O)[C@@H](NC(=O)[C@@H](NC(=O)c1cnccn1)C1CCCCC1)C(C)(C)C)C(=O)C(=O)NC1CC1", "note": "[Compound 1001, Telaprevir]", "Synergy Volume": 104},
      {"smiles": "CC1CCC(C(=O)N(c2cc(C#CC(C)(C)C)sc2C(=O)O)C2CCC(O)CC2)CC1", "note": "(centres unmarked) [Compound 3003]", "Synergy Volume": 32}
    ]},
    {"tested_on": "HCV genotype 1b HCV replicon harbored in Huh7 cells", "assay": "Combination testing in HCV replicon (CalcuSyn CI, MacSynergy II synergy volume)", "type": "cell-based", "conditions": "combination of compound 1a with the listed compound; 72 hours; MacSynergy II, Bliss independence; 25-100 synergistic, >100 strong synergistic", "method": "as §1, §2, §3", "units": {"Synergy Volume": "μM^2%"}, "values": [
      {"smiles": "CC(C)OC(=O)C(C)NP(=S)(OC[C@H]1O[C@@H](n2ccc(=O)[nH]c2=O)[C@](C)(O)[C@@H]1O)Oc1ccccc1", "note": "(some centres unmarked) [Compound 6002]", "Synergy Volume": 29}
    ]},
    {"tested_on": "Huh-7 cells containing the self-replicating, subgenomic HCV replicon", "assay": "HCV replicon assay (luciferase reporter)", "type": "cell-based", "conditions": "Hepatitis C virus, Huh-7, 72 h", "method": "Huh-7 cells containing the self-replicating, subgenomic HCV replicon with a stable luciferase (LUC) reporter were cultured in Dulbecco's modified Eagle's medium (DMEM) containing 2 mM L-glutamine and supplemented with 10% heat-inactivated fetal bovine serum (FBS), 1% penicillin-streptomyocin, 1% nonessential amino acids, and 0.5 mg/mL G418.\nDetermination of 50% inhibitory concentration (EC50) of compounds in HCV replicon cells were performed by the following procedure. On the first day, 5,000 HCV replicon cells were plated per well in a 96-well plate. On the following day, test compounds were solubilized in 100% DMSO to 100× the desired final testing concentration. Each compound was then serially diluted (1:3) up to 9 different concentrations. Compounds in 100% DMSO are reduced to 10% DMSO by diluting 1:10 in cell culture media. The compounds were diluted to 10% DMSO with cell culture media, which were used to dose the HCV replicon cells in 96-well format. The final DMSO concentration was 1%. The HCV replicon cells were incubated at 37° C. for 72 hours. At 72 hours, cells were processed when the cells are still subconfluent. Compounds that reduce the LUC signal are determined by Bright-Glo Luciferase Assay (Promega, Madison, Wis.). % Inhibition was determined for each compound concentration in relation to the control cells (untreated HCV replicon) to calculate the EC50.\nCompounds of Formula (I) are active in the replicon assay. The antiviral activity of exemplary compounds is shown in Table 3, where ‘A’ indicates an EC50<1 μM, ‘B’ indicates an EC50≧1 μM and <10 μM, and ‘C’ indicates an EC50≧10 μM and <100 μM.", "units": {"EC50": "nM"}, "values": [
      {"smiles": "CCC#C[C@@]1(O)[C@H](O)[C@@H](COP(=S)(N[C@@H](C)C(=O)OC(C)C)Oc2ccccc2)O[C@H]1n1ccc(=O)[nH]c1=O", "note": "(some centres unmarked) [Compound 18a]", "EC50": "10000 to 100000"},
      {"smiles": "C=C[C@@]1(O)[C@H](O)[C@@H](COP(=S)(N[C@@H](C)C(=O)OC(C)C)Oc2ccccc2)O[C@H]1n1ccc(=O)[nH]c1=O", "note": "(some centres unmarked) [Compound 2a]", "EC50": "1000 to 10000"},
      {"smiles": "CC#C[C@@]1(O)[C@H](O)[C@@H](COP(=S)(N[C@@H](C)C(=O)OC(C)C)Oc2ccccc2)O[C@H]1n1ccc(=O)[nH]c1=O", "note": "(some centres unmarked) [Compound 14a]", "EC50": "1000 to 10000"},
      {"smiles": "C#C[C@@]1(O)[C@H](O)[C@@H](COP(=S)(N[C@@H](C)C(=O)OC(C)C)Oc2ccc(F)c(Cl)c2)O[C@H]1n1ccc(=O)[nH]c1=O", "note": "(some centres unmarked) [Compound 12a]", "EC50": "< 1000"},
      {"smiles": "C#C[C@@]1(O)[C@H](O)[C@@H](COP(=S)(N[C@@H](CC(C)C)C(=O)OC(C)C)Oc2ccccc2)O[C@H]1n1ccc(=O)[nH]c1=O", "note": "(some centres unmarked) [Compound 9a]", "EC50": "1000 to 10000"},
      {"smiles": "C#C[C@@]1(O)[C@H](O)[C@@H](COP(=S)(N[C@@H](CC)C(=O)OC(C)C)Oc2ccccc2)O[C@H]1n1ccc(=O)[nH]c1=O", "note": "(some centres unmarked) [Compound 21a]", "EC50": "< 1000"},
      {"smiles": "C#C[C@@]1(O)[C@H](O)[C@@H](COP(=S)(N[C@@H](C)C(=O)OC(C)C)Oc2ccccc2)O[C@H]1n1cnc2c(N)ncnc21", "note": "(some centres unmarked) [Compound 4a]", "EC50": "< 1000"},
      {"smiles": "C#C[C@@]1(O)[C@H](O)[C@@H](COP(=S)(N[C@@H](C)C(=O)OC(C)C)Oc2ccc(Cl)cc2)O[C@H]1n1ccc(=O)[nH]c1=O", "note": "(some centres unmarked) [Compound 11a]", "EC50": "< 1000"},
      {"smiles": "CC(C)C#C[C@@]1(O)[C@H](O)[C@@H](COP(=S)(N[C@@H](C)C(=O)OC(C)C)Oc2ccccc2)O[C@H]1n1ccc(=O)[nH]c1=O", "note": "(some centres unmarked) [Compound 20a]", "EC50": "10000 to 100000"},
      {"smiles": "C#C[C@@]1(O)[C@H](O)[C@@H](CO[P@@](=S)(N[C@@H](C)C(=O)OC(C)C)Oc2ccccc2)O[C@H]1n1ccc(=O)[nH]c1=O", "note": "[Compound 1aa]", "EC50": "< 1000"},
      {"smiles": "C#C[C@@]1(O)[C@H](O)[C@@H](COP(=S)(N[C@@H](C)C(=O)OC(C)C)Oc2ccc(F)cc2)O[C@H]1n1ccc(=O)[nH]c1=O", "note": "(some centres unmarked) [Compound 10a]", "EC50": "< 1000"},
      {"smiles": "C#C[C@@]1(O)[C@H](O)[C@@H](CO[P@](=S)(N[C@@H](C)C(=O)OC(C)C)Oc2ccccc2)O[C@H]1n1ccc(=O)[nH]c1=O", "note": "[Compound 1ab]", "EC50": "< 1000"},
      {"smiles": "C#C[C@@]1(O)[C@H](O)[C@@H](COP(=S)(N[C@@H](C)C(=O)OC(C)C)Oc2ccccc2)O[C@H]1n1cnc2c(=O)[nH]c(N)nc21", "note": "(some centres unmarked) [Compound 6a]", "EC50": "1000 to 10000"},
      {"smiles": "C#C[C@@]1(O)[C@H](O)[C@@H](COP(=S)(N[C@H](C(=O)OC(C)C)C(C)C)Oc2ccccc2)O[C@H]1n1ccc(=O)[nH]c1=O", "note": "(some centres unmarked) [Compound 8a]", "EC50": "10000 to 100000"},
      {"smiles": "C#C[C@@]1(F)[C@H](O)[C@@H](COP(=S)(N[C@@H](C)C(=O)OC(C)C)Oc2ccccc2)O[C@H]1n1ccc(=O)[nH]c1=O", "note": "(some centres unmarked) [Compound 16a]", "EC50": "1000 to 10000"},
      {"smiles": "C#C[C@@]1(O)[C@H](O)[C@@H](COP(=S)(N[C@@H](C)C(=O)OC2CCCCC2)Oc2ccccc2)O[C@H]1n1cnc2c(=O)[nH]c(N)nc21", "note": "(some centres unmarked) [Compound 17a]", "EC50": "1000 to 10000"},
      {"smiles": "C#C[C@@]1(O)[C@H](O)[C@@H](COP(=S)(N[C@@H](C)C(=O)OC(C)C)Oc2ccccc2)O[C@H]1n1ccc(=O)[nH]c1=O", "note": "(some centres unmarked) [Compound 1a]", "EC50": "< 1000"},
      {"smiles": "C#C[C@@]1(O)[C@H](O)[C@@H](COP(=S)(N[C@@H](C)C(=O)OC(C)C)Oc2cccc3ccccc23)O[C@H]1n1ccc(=O)[nH]c1=O", "note": "(some centres unmarked) [Compound 13a]", "EC50": "< 1000"},
      {"smiles": "CC(C)OC(=O)[C@H](C)NP(=S)(OC[C@H]1O[C@@H](n2ccc(=O)[nH]c2=O)[C@@](O)(C#CI)[C@@H]1O)Oc1ccccc1", "note": "(some centres unmarked) [Compound 15a]", "EC50": "< 1000"},
      {"smiles": "C#C[C@@]1(O)[C@H](O)[C@@H](COP(=S)(N[C@@H](CCSC)C(=O)OC(C)C)Oc2ccccc2)O[C@H]1n1ccc(=O)[nH]c1=O", "note": "(some centres unmarked) [Compound 7a]", "EC50": "< 1000"},
      {"smiles": "C#C[C@@]1(O)[C@H](O)[C@@H](COP(=S)(N[C@@H](CCC)C(=O)OC(C)C)Oc2ccccc2)O[C@H]1n1ccc(=O)[nH]c1=O", "note": "(some centres unmarked) [Compound 19a]", "EC50": "< 1000"}
    ]}
  ]
}
